Laboratory results published in PubChem BioAssay (NCI).
“And” between values parts separate entries of the source, which are not always exact repeats. Identical values can stand only once.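 A five-concentration, 48-hour dose response in 96-well plates underlies each endpoint, interpolated linearly between surrounding concentrations. GI50: concentration for 50% inhibition of growth. At the TGI there is no net growth.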

What was measured:
Assay in all cases: NCI anticancer screen, dose series, 48 h
MCF7 breast = system: MCF7 breast
PC-3 prostate = system: PC-3 prostate
TK-10 renal = system: TK-10 renal
HS 578T breast = system: HS 578T breast
A498 renal = system: A498 renal
CAKI-1 renal = system: CAKI-1 renal
HOP-62 NSCLC = system: HOP-62 NSCLC
SF-539 CNS = system: SF-539 CNS
HCT-15 colon = system: HCT-15 colon
SK-OV-3 ovarian = system: SK-OV-3 ovarian

SMILES | TGI (MCF7 breast) | TGI (PC-3 prostate) | GI50 (TK-10 renal) | TGI (TK-10 renal) | TGI (HS 578T breast) | GI50 (A498 renal) | TGI (A498 renal) | TGI (CAKI-1 renal) | TGI (HOP-62 NSCLC) | TGI (SF-539 CNS) | GI50 (HCT-15 colon) | TGI (HCT-15 colon) | TGI (SK-OV-3 ovarian) | GI50 (MCF7 breast) | GI50 (PC-3 prostate) | GI50 (HS 578T breast) | GI50 (CAKI-1 renal) | GI50 (HOP-62 NSCLC) | GI50 (SF-539 CNS) | GI50 (SK-OV-3 ovarian)
COc1ccc(-c2c3c(n(C4OC(COC(C)=O)C(OC(C)=O)C(OC(C)=O)C4OC(C)=O)c(=S)c2C#N)CC(C)(C)CC3=O)cc1 (stereo not drawn) | > 100 µM | > 100 µM | 39.5 µM and > 100 µM | > 100 µM | > 100 µM | 42.1 µM and > 100 µM | > 100 µM | > 100 µM | > 100 µM | 58.6 µM and > 100 µM | 40.7 µM and > 100 µM | > 100 µM | > 100 µM | – | – | – | – | – | – | –
Cc1cc(CC(C)CC(C)(C)C)n(O)c(=O)c1 (stereo not drawn) (tested in a mixture with another compound) | > 43 µM | 40 µM | 5.09 µM | > 74.7 µM | > 62.1 µM | 0.944 µM | 10.3 µM | 9.82 µM | 16.1 µM | 13.2 µM | 0.459 µM | > 100 µM | > 55.3 µM | 0.401 µM | 0.601 µM | 8.07 µM | 1.76 µM | 0.677 µM | 0.39 µM | 1.75 µM
COc1cccc(C2c3cc4c(cc3OC(N3CCCC3)C2C)OCO4)c1O (stereo not drawn) | > 83.6 µM | 73.5 µM | – | 40.1 µM | 18.5 µM | – | 33.7 µM | 68.3 µM | 45.7 µM | 10.6 µM | – | 38.4 µM | 35.2 µM | – | – | – | – | – | – | –
O=C(O)C(Cl)(c1ccccc1)c1ccccc1 | > 100 µM | > 100 µM | – | > 100 µM | > 100 µM | – | > 100 µM | > 100 µM | > 100 µM | > 100 µM | – | > 100 µM | > 100 µM | – | – | – | – | – | – | –
O=C(OCc1ncc(-c2ccc(C(F)(F)F)cc2)c(NC2CCCCCC2)n1)c1c(F)c(F)c(F)c(F)c1F | 5.81 µM | 26.7 µM | 21.5 µM | 37 µM | 51.9 µM | 18.7 µM | 33.2 µM | 37.3 µM | 34.3 µM | 30.7 µM | 1.94 µM | 4.78 µM | 39.1 µM | 2.06 µM | 12 µM | 16.2 µM | 17.5 µM | 18.8 µM | 16.3 µM | 21.6 µM
CC(C)(C)CC(C)(C)NCc1cc(C(C)(C)C)cc(CNC(C)(C)CC(C)(C)C)c1O | 11.3 µM | 12.2 µM | 2.55 µM | 5.87 µM | 20.7 µM | 2.53 µM | 11.3 µM | 17.2 µM | 17.9 µM | 17.8 µM | 3.22 µM | 12.5 µM | 8.45 µM | 3.12 µM | 2.86 µM | 3.22 µM | 3.69 µM | 4.69 µM | 5.16 µM | 2.52 µM
Cc1cc(C)c(NC(=S)NC(=O)c2ccccc2)cc1C | > 100 µM | > 100 µM | – | > 100 µM | > 100 µM | – | > 100 µM | > 100 µM | > 100 µM | > 100 µM | – | > 100 µM | > 100 µM | – | – | – | – | – | – | –
OCC(O)c1nc2ccc3[nH]ncc3c2c2c1CCCC2 (stereo not drawn) | > 50 µM | > 50 µM | 1.42 µM | > 50 µM | 4.26 µM | 0.876 µM | 1.75 µM | > 50 µM | > 50 µM | 2.4 µM | 1.5 µM | > 50 µM | > 50 µM | 0.931 µM | 1.43 µM | 1.4 µM | 0.971 µM | 1.53 µM | 0.957 µM | 2.23 µM
